ChEMBL document CHEMBL5126556, “Recent advances in natural anti-obesity compounds and derivatives based on in vivo evidence: A mini-review” (Eur J Med Chem, 2022)

How the values were obtained:
Type in all cases: functional
Mus musculus [1] = test: Anti-obesity activity in male C57BL/6 mouse model of high-fat diet induced obesity assessed as body weight change at 30 mg/kg, po administered once a day for 8 weeks relative to control
Mus musculus [2] = test: Anti-obesity activity in male C57BL/6 mouse model of high-fat diet induced obesity assessed as body weight change at 50 mg/kg, po administered once a day for 8 weeks relative to control
Mus musculus [3] = test: Anti-obesity activity in male C57BL/6 mouse model of high-fat diet induced obesity assessed as body weight change at 50 mg/kg, po administered once a day for 6 weeks relative to control
Mus musculus [4] = test: Anti-obesity activity in male C57BL/6 mouse model of high-fat diet induced obesity assessed as body weight change at 150 mg/kg, po administered once a day for 4 weeks relative to control
Mus musculus [5] = test: Anti-obesity activity in high-fat diet induced C57BL/6J obese mouse model assessed as body weight change at 150 mg/kg, po administered once daily for 4 weeks relative to control
Mus musculus [6] = test: Anti-obesity activity in male C57BL/6 mouse model of high-fat diet induced obesity assessed as body weight change at 20 mg/kg, po administered once a day for 8 weeks relative to control
Mus musculus [7] = test: Anti-obesity activity in male C57BL/6 mouse model of high-fat diet induced obesity assessed as body weight change at 50 mg/kg, po administered once a day for 9 weeks relative to control
Mus musculus [8] = test: Anti-obesity activity in male C57BL/6 mouse model of high-fat diet induced obesity assessed as body weight change at 20 mg/kg, ip administered twice a week for 12 weeks relative to control
Mus musculus [9] = test: Anti-obesity activity in male C57BL/6 mouse model of high-fat diet induced obesity assessed as body weight change at 1 mg/kg, po administered once a week for 7 weeks relative to control
Mus musculus [10] = test: Anti-obesity activity in female C57BL/6 mouse model of high-fat diet induced obesity assessed as body weight change at 0.005 % (w/v) administered orally for 16 weeks relative to control; settings: route po
Mus musculus [11] = test: Anti-obesity activity in Swiss male mouse model of high-fat diet induced obesity assessed as body weight change at 10 mg/kg, po administered for 15 weeks relative to control
Mus musculus [12] = test: Anti-obesity activity in male C57BL/6 mouse model of high-fat diet induced obesity assessed as body weight change at 5 mg/kg, po administered thrice a week for 8 weeks relative to control
Mus musculus [13] = test: Anti-obesity activity in male C57BL/6 mouse model of high-fat diet induced obesity assessed as body weight change at 0.002 mg/kg, ip administered once a day for 8 weeks relative to control
Mus musculus [14] = test: Anti-obesity activity in male C57BL/6 mouse model of high-fat diet induced obesity assessed as body weight change at 1.25 mg/kg, ip administered once a day for 21 days relative to control; settings: time 21 day

`CC1(C)[C@@H](O)CC[C@]2(C)[C@H]3C(=O)C=C4[C@@H]5C[C@@](C)(C(=O)O)CC[C@]5(C)CC[C@@]4(C)[C@]3(C)CC[C@@H]12` [ENOXOLONE] gave an Activity (Mus musculus [1]) of 30.2%.
With `COc1ccc(-c2coc3cc(O)ccc3c2=O)cc1` [FORMONONETIN] the Activity (Mus musculus [2]) was 18.8%.
For `C[C@H](CC(=O)C[C@@H](C)[C@H]1C[C@H](O)[C@@]2(C)C3=C(C(=O)C[C@]12C)[C@@]1(C)CCC(=O)C(C)(C)[C@@H]1C[C@@H]3O)C(=O)O` [GANODERIC ACID A], the Activity (Mus musculus [3]) was 17.4%.
Work on `CC1(C)C=Cc2c(ccc3c2OC[C@@H](c2ccc(O)cc2O)C3)O1` [GLABRIDIN] yielded an Activity (Mus musculus [4]) of -16.7% and an Activity (Mus musculus [5]) of -13.2%.
`C=C1C(=O)O[C@@H]2C[C@@]3(C)CCCC(=C)[C@@H]3C[C@H]12` [ISOALANTOLACTONE] gave an Activity (Mus musculus [6]) of 44.1%.
With `CC1(C)C=Cc2cc(-c3coc4cc(O)ccc4c3=O)ccc2O1` [ISOWIGHTEONE] the Activity (Mus musculus [7]) was 8.3%.
Work on `CC1(C)CC[C@]2(C(=O)O)CC[C@]3(C)C(=CC[C@@H]4[C@@]5(C)C[C@@H](O)[C@H](O)C(C)(C)[C@@H]5CC[C@]43C)[C@@H]2C1` [MASLINIC ACID] yielded an Activity (Mus musculus [8]) of 18.2%.
Compound `O=C1N[C@@H]2C(=C[C@H](O)[C@@H](O)[C@H]2O)c2cc3c(c(O)c21)OCO3` [NARCICLASINE] has an Activity (Mus musculus [9]) of 23.6%.
`CC1(C)CC[C@]2(C(=O)O)CC[C@]3(C)C(=CC[C@@H]4[C@@]5(C)CC[C@H](O)C(C)(C)[C@@H]5CC[C@]43C)[C@@H]2C1` [OLEANOLIC_ACID] showed an Activity (Mus musculus [10]) of 45% and an Activity (Mus musculus [11]) of 71.9%.
For `COc1cc(O)c(C(=O)[C@@H]2[C@H](CC=C(C)C)C(C)=CC[C@H]2c2ccccc2)c(O)c1` [PANDURATIN A], the Activity (Mus musculus [2]) was 15%.
For `Cc1coc2c1C(=O)C(=O)c1c-2ccc2c(C)cccc12` [TANSHINONE I], the Activity (Mus musculus [12]) was 30.6%.
`CC1=C(CO)C(=O)O[C@@H]([C@@H](C)[C@H]2CC[C@H]3[C@@H]4C[C@H]5O[C@]56[C@@H](O)C=CC(=O)[C@]6(C)[C@H]4CC[C@]23C)C1` [WITHAFERIN A] gave an Activity (Mus musculus [13]) of 30.5% and an Activity (Mus musculus [14]) of 0%.
